Measured values: patent publication US9012435B2, “Glucocorticoids attached to nitrate esters via an aromatic linker in position 21 and their use in ophthalmology” (Nicox S.A., priority 2008, dated 2015)
Like-named read-outs stand apart in the source and are kept apart here.

Experiments:
[1] = system: isolated rabbit thoracic aorta preparations; test: Assay on vascular tone (vasorelaxation of methoxamine-precontracted aortic rings); conditions: for EC50: Oryctolagus cuniculus, read-out: EC50 (concentration producing 50% of the maximum relaxation)
Experimental: The ability of the compounds of the invention to induce vasorelaxation in comparison to precursor compounds was tested in vitro in isolated rabbit thoracic aorta preparations (Wanstall J. C. et al., Br. J. Pharmacol., 134:463-472, 2001). Male New Zealand rabbits (1,8-2 Kg) were used. The animals were anaesthetized with sodium thiopental (50 mg/kg, iv), sacrificed by exsanguinations and then the thorax was opened and the aorta dissected. The aortas were placed immediately in Krebs-HEPES buffer (pH 7.4; composition mM: NaCl 130.0, Kcl 3.7, […] 14.9, KH2PO4 1.2, MgSO4.7H2O 1.2, Glucose 11.0, HEPES 10.0, CaCl2.2H2O 1.6) and cut into ring segments (4-5 mm in length). Each ring was placed in a 5 ml tissue bath filled with Krebs-HEPES buffer (37° C.) aerated with 95% O2 and 5% CO2 and was then attached to a force transducer (Grass FT03), connected to a BIOPAC MP150 System for measurement of the isometric tension^2. The preparations were allowed to equilibrate for 1 h at a resting tension of 2 g with changes of the buffer every 15 minutes and then stimulated by exposure to 90 mM KCl (3 times) with intervening washings. After equilibration, the rings were precontracted submaximally with methoxamine (3 μM) and, when the contraction reach a steady state a cumulative concentration-response curve to the test compounds was obtained. The time intervals between doses were based on the time needed to reach a full a steady state response.
Responses to test compounds were expressed as a percentage of residual contraction and plotted against concentration of test compound. EC50 values (where EC50 is the concentration producing 50% of the maximum relaxation to the test compound) were interpolated from these plots.

[2] = system: VEGF-induced leakage rat model; test: VEGF-induced retinal vascular leakage rat model (Evans blue); type: in vivo; conditions: VEGF 100 ng/eye
Experimental: Pupils were dilated with 1% topical cyclopentolate hydrochloride to see the needle to guide the intravitreal injection. Recombinant rat vascular endothelial growth factor (VEGF; 100 ng/eye) or VEGF at 100 ng/eye plus test compounds were prepared in 0.5% carboxymethyl cellulose (CMC) in sterile saline and was injected into the vitreous with a 30-gauge needle (Xu, Q., et al. Invest. Ophthalmol. Vis. Sci., 42:789-794, 2001). The compounds of the invention were compared to corresponding steroid cores at equimolar doses. […] Control animals received vehicle. Compound (18) was similarly dosed alongside triamcinolone acetonide for comparison.
Retinal vascular leakage was measured as described previously (Xu, Q., et al. Invest. Ophthalmol. Vis. Sci., 42:789-794, 2001). After about 18 hours post injection of test compounds, rats were anesthetized with ketamine (80 mg/kg) and xylazine (4 mg/kg) IP. Then 45 mg/kg Evans blue (EB) was injected into the jugular vein. The dye was allowed to circulate for 2 hours. The chest cavity was opened and rats then perfused with 1% formalin in 0.5 M citrate buffer (pH 3.5, 37° C.) through the left ventricle. Retinas were carefully dissected from enucleated eyes, placed in pre-weighed Eppendorf tubes, dried in speed vacuum overnight and dry weights recorded. Evans blue was extracted by incubating each retina in 120 μl formamide for 18 hours at 70° C., centrifuged for 2 hours at 6000 rpm. Absorbance of 60 μl of extract was measured at 620 nm and background absorbance was determined at 740 nm. Net absorbance was calculated by subtracting the background 740 nm from that at 620 nm. Measurement of a standard curve of Evans blue in formamide was also done and Evans blue leakage expressed as μl/g/h was calculated as shown below: [EB(ng/ml)×120 (μl)×1000]/[dry weight retina (mg)×circulation time (h)×plasma EB(ng/ml)×100]

[3] = system: retinal tissue; test: Retina protection: morphological analysis, ET-1 induced ischemia; type: in vivo, rabbit; conditions: long term ET-1 treatment; 0.5 mg (equivalent)/eye IVT
Experimental: The eyes of each animal was enucleated, cornea and crystalline were removed and the eyes was paraformaldehyde-fixed. Then samples were dehydrated with increasing alcohol concentration (50°-75°-95°-100°). After 95° alcohol treatment, the eyes were divided into two parts following a longitudinal plain from cornea to insertion of optical nerve. Thus the samples were paraffin-embedded. Section 8 μm thick were stained with Haematoxylin-Eosin. Microscopical fields were registered by digitizing camera applied a light microscope with a 20× and 40× objective. On the digitized images was performed a morphological analysis of retinal tissue.

[4] = system: VEGF; test: VEGF content in aqueous humor, ET-1 induced ischemia; type: in vivo, rabbit; conditions: ET-1 treated rabbits; 0.5 mg (equivalent)/eye IVT
[5] = system: ophthalmic artery; test: Ocular haemodynamics (Color Doppler Imaging, Pourcelot Resistance Index) in ET-1 induced ischemia; type: in vivo, rabbit
Experimental: Haemodynamic evaluations were performed using an eco-color-doppler DynaView TM II SSD-1700 (Aloka Holding Europe AG, Milan, Italy). All animals underwent Color Doppler Imaging (CDI) investigation before ET-1 injection (T0), before the start of drug instillation (T2) and at the end of the drug treatment (T6). Special attention was devoted to the evaluation of ophthalmic and ciliary artery circulation. Blood flow velocities were measured for each vessel and the Pourcelot Resistance Index (RI) was calculated (Galassi F. et al., Acta Opht. Scand Suppl. (2000) 37-38).

[6] = system: IL-6; test: IL-6 content in aqueous humor (ELISA), ET-1 induced ischemia; type: in vivo, rabbit; conditions: ET-1 treated rabbits; 0.5 mg (equivalent)/eye IVT
Experimental: (§1) Aqueous humor samples were withdrawn from both anterior and posterior chamber fluids of each eye before ET-1 administration (T0), before the administration of Compound (1) or fluorocinolone acetonide (T2), and at the end of treatments (T6). The same volume of saline were reintroduced every time. The aqueous humor samples were immediately frozen at −80° C. until use.
(§2) Tumor necrosis factor (TNFα) and interleukin 6 (IL-6) were determined in aqueous humor with a commercial kit using an ELISA method (Amersham Pharmacia Biotech). The minimum detectable concentrations were 0.10 pg/ml for IL-6 and TNFα. The interassay coefficient of variation was 0.7% for all assays.

[7] = system: TNFα; test: TNFα content in aqueous humor (ELISA), ET-1 induced ischemia; type: in vivo, rabbit; conditions: ET-1 treated rabbits; 0.5 mg (equivalent)/eye IVT
Experimental: as §1, §2

[8] = system: Brown Norway rats; test: Steroid-induced intraocular pressure (IOP) elevation in rats after intravitreal injection; conditions: 39.1 μg/eye (25 μg/eye equivalent) intravitreal
Description: Male Brown Norway rats (250-275 g; Charles River laboratory) were acclimated for a week before IOP measurements. Baseline IOP measurements with Tonolab Tonometer (Tiolat Inc) were done in conscious rats (Pease, M. E., et al J. Glaucoma, 15:512-519, 2006) before intravitreal injection of test compounds. Then the rats were anesthetized with isoflurane inhalation and a drop of 0.5% tetracaine was topically applied on the eyes. Pupils were dilated with 1% topical cyclopentolate hydrochloride and 2.5% phenylephrine HCl to see the needle to aim the intravitreal injection of test compounds. […] For example, to compare to fluocinolone acetonide at both 25 and 50 μg/eye, compound (1) was dosed at 42.4 and 84.7 μg/eye, respectively. The des-nitro analog of compound (1) was dosed at 39.1 μg/eye (equivalent for 25 μg FC). Control animals received vehicle.
Five measurements were averaged for each time point. IOP measurements were taken at one and two weeks after intravitreal injection of test compounds.

[9] = rabbit aortic rings precontracted with methoxamine 3 μM

## COc1cc(C(=O)OCCCCC(CO[N+](=O)[O-])O[N+](=O)[O-])ccc1OC(=O)OCC(=O)[C@@]12OC(C)(C)O[C@@H]1CC1C3C[C@H](F)C4=CC(=O)C=C[C@]4(C)[C@@]3(F)[C@@H](O)C[C@@]12C (stereo partly drawn) [Compound (3), 5,6-bis(nitrooxy)hexyl 4-((2-((6S,9R,10S,11S,13S,16R,17S)-6,9-difluoro-11-hydroxy-16,17-((1-methylethylidene)bis(oxy))-10,13-dimethyl-3-oxo-6,7,8,9,10,11,12,13,14,15,16,17-dodecahydro-3H-cyclopenta[a]phenanthren-17-yl)-2-oxoethoxy)carbonyloxy)-3-methoxybenzoate]
[1]; [9]
  EC50: 0.21 ± 0.07 µM

## COc1cc(C(=O)OCCCCO[N+](=O)[O-])ccc1OC(=O)OCC(=O)[C@@]12OC(C)(C)O[C@@H]1CC1C3CCC4=CC(=O)C=C[C@]4(C)[C@@]3(F)[C@@H](O)C[C@@]12C (stereo partly drawn) [Compound (18), 4-(nitrooxy)butyl 4-((2-((9R,10S,11S,13S,16R,17S)-9-fluoro-11-hydroxy-16,17-(1-methylethylidenebis(oxy))-10,13-dimethyl-3-oxo-6,7,8,9,10,11,12,13,14,15,16,17-dodecahydro-3H-cyclopenta[a]phenanthren-17-yl)-2-oxoethoxy)carbonyloxy)-3-methoxybenzoate]
[2]; dose equivalent to 10 μg/eye triamcinolone acetonide, intravitreal
  reduction of VEGF-induced leakage: 54.3%
[1]; [9]
  EC50: 1.56 µM

## CC1(C)O[C@@H]2C[C@H]3[C@@H]4CCC5=CC(=O)C=C[C@]5(C)[C@@]4(F)[C@@H](O)C[C@]3(C)[C@]2(C(=O)CO)O1 [TAAC, Triamcinolone acetonide]
[2]; 10 μg/eye intravitreal
  reduction of VEGF-induced leakage: 67.5%
[1]; [9]
  EC50 (concentration producing 50% of the maximum relaxation): no effect

## CC1(C)O[C@@H]2CC3C4CCC5=CC(=O)C=C[C@]5(C)[C@@]4(F)[C@@H](O)C[C@]3(C)[C@]2(C(=O)COC(=O)Oc2cc(C(=O)OCCCCO[N+](=O)[O-])cc(O)c2O)O1 (stereo partly drawn) [Compound (10), 4-(nitrooxy)butyl 3-((2-((9R,10S,11S,13S,16R,17S)-9-fluoro-11-hydroxy-16,17-((1-methylethylidene)bis(oxy))-10,13-dimethyl-3-oxo-6,7,8,9,10,11,12,13,14,15,16,17-dodecahydro-3H-cyclopenta[a]phenanthren-17-yl)-2-oxoethoxy)carbonyloxy)-4,5-dihydroxybenzoate]
[1]; [9]
  EC50: 2.35 ± 0.98 µM

## COc1cc(C(=O)OCCCCO[N+](=O)[O-])ccc1OC(=O)OCC(=O)[C@@]12OC(C)(C)O[C@@H]1CC1C3C[C@H](F)C4=CC(=O)C=C[C@]4(C)[C@@]3(F)[C@@H](O)C[C@@]12C (stereo partly drawn) [Compound (1), 4-(nitrooxy)butyl 4-((2-((6S,9R,10S,11S,13S,16R,17S)-6,9-difluoro-11-hydroxy-16,17-16,17-(1-methylethylidenebis(oxy))-10,13-dimethyl-3-oxo-6,7,8,9,10,11,12,13,14,15,16,17-dodecahydro-3H-cyclopenta[a]phenanthren-17-yl)-2-oxoethoxy)carbonyloxy)-3-methoxybenzoate]
[3]
  ET-1 induced morphological changes of retinal tissue: not equally present
[4]
  VEGF content in aqueous humor: 105.79 ± 1.98 pg/mL
[5]; After 2 weeks (before drug instillation, T2)
  Resistence Index: 0.43 ± 0.08
[5]; After 6 weeks (end of drug treatment), 0.5 mg (equivalent)/eye IVT
  Resistence Index: 0.41 ± 0.03
[5]; Basal
  Resistence Index: 0.43 ± 0.06
[2]; 42.4 μg/eye intravitreal (equimolar to 25 μg/eye FC), 18 hours after injection
  inhibition of VEGF-induced leakage: 77.1%
[6]
  IL6 content in aqueous humor: 15.70 ± 1.73 pg/mL
[1]
  EC50: 2.2 µM
[7]
  TNFα content in aqueous humor: 18.93 ± 0.98 pg/mL

## CCCCOC(=O)c1ccc(OC(=O)OCC(=O)C23OC(C)(C)OC2CC2C4CC(F)C5=CC(=O)C=CC5(C)C4(F)C(O)CC23C)c(OC)c1 [des-nitro analog of compound (1), Butyl 4-((2-((6S,9R,10S,11S,13S,16R,17S)-6,9-difluoro-11-hydroxy-16,17-16,17-(1-methylethylidenebis(oxy))-10,13-dimethyl-3-oxo-6,7,8,9,10,11,12,13,14,15,16,17-dodecahydro-3H-cyclopenta[a]phenanthren-17-yl)-2-oxoethoxy)carbonyloxy)-3-methoxybenzoate]
[8]
  IOP compared to compound (1) at 42.4 μg/eye (FIG. 4): increase in IOP

## CC1(C)O[C@@H]2CC3C4C[C@H](F)C5=CC(=O)C=C[C@]5(C)[C@@]4(F)[C@@H](O)C[C@]3(C)[C@]2(C(=O)COC(=O)Oc2cc(C(=O)OCCCCO[N+](=O)[O-])cc(O)c2O)O1 (stereo partly drawn) [Compound (6), 4-(nitrooxy)butyl 3-((2-((6S,9R,10S,11S,13S,16R,17S)-6,9-difluoro-11-hydroxy-16,17-((1-methylethylidene)bis(oxy))-10,13-dimethyl-3-oxo-6,7,8,9,10,11,12,13,14,15,16,17-dodecahydro-3H-cyclopenta[a]phenanthren-17-yl)-2-oxoethoxy)carbonyloxy)-4,5-dihydroxybenzoate]
[1]; [9]
  EC50: 1.44 ± 0.41 µM

## COc1cc(C(=O)OCCOCCOCCO[N+](=O)[O-])ccc1OC(=O)OCC(=O)[C@@]12OC(C)(C)O[C@@H]1CC1C3C[C@H](F)C4=CC(=O)C=C[C@]4(C)[C@@]3(F)[C@@H](O)C[C@@]12C (stereo partly drawn) [Compound (5), 2-(2-(2-(nitrooxy)ethoxy)ethoxy)ethyl 4-((2-((6S,9R,10S,11S,13S,16R,17S)-6,9-difluoro-11-hydroxy-16,17-((1-methylethylidene)bis(oxy))-10,13-dimethyl-3-oxo-6,7,8,9,10,11,12,13,14,15,16,17-dodecahydro-3H-cyclopenta[a]phenanthren-17-yl)-2-oxoethoxy)carbonyloxy)-3-methoxybenzoate]
[1]; [9]
  EC50: 0.83 ± 0.25 µM
